Source: PMC6008299, “Impact of race on dose selection of molecular-targeted agents in early-phase oncology trials” (British Journal of Cancer, 2018)
“Also recorded” adds a separate entry of the source.

Legend:
[1] = tested on: patients with advanced, refractory solid tumours; test: Phase I dose-escalation study U101 (US): safety, DLT, MTD; type: in vivo
Source text: Studies were approved by the Institutional Review Board at the participating institutions and regulatory authorities. Written informed consent in English and Japanese was obtained from all patients prior to enrollment.
Secondary and exploratory objectives were to evaluate PK, tumour response, and PD effects. Treatment-emergent adverse events (TEAE) were graded using the Common Terminology Criteria for Adverse Events version 4.0. A dose-limiting toxicity (DLT) was defined as a grade ≥3 clinically significant toxicity, with the exceptions of grade ≥4 anaemia and prolonged grade 3 neutropenia. Both studies were open-label, phase I dose-escalation studies. In Japan, the study was conducted at a single centre, while the US study was conducted at three sites. […] In the US, an accelerated titration design was used at low doses followed by a mCRM with EWOC. Briefly, the dose was escalated based on safety data in a single patient until a grade 2 or higher toxicity was observed during cycle 1 or the DLT period (days 1–28). […] Prophylactic granulocyte colony-stimulating factor and antiemetics were not permitted during cycle 1.

[2] = Pharmacokinetics, both studies; type: in vivo, human
Source text: In both studies, the PK profile of DS-7423 was characterised during cycle 1 on days 1 and 8. […] The data cut-off for the primary analysis occurred after all patients had either discontinued the study or completed 6 months of study drug treatment. Descriptive statistics were provided for selected demographic, safety, PK, and PD data by dose and time as appropriate. Descriptive statistics on continuous data included means, medians, standard deviations, and ranges, while categorical data were summarised using frequency counts and percentages. No inferential analysis to compare dose levels was performed due to limited sample sizes. The WinNonlin software was used for PK analysis.

## CC(=O)N1CCN(c2nc3c(N4CCOCC4)nc(-c4cnc(N)nc4)nc3n2CC(F)(F)F)C[C@H]1C [DS-7423]
[1]; 160 mg US cohort (n = 4)
  AST increased (TEAE), n patients: 0
  Abdominal pain (TEAE), n patients: 1
  Back pain (TEAE), n patients: 0
  Blood creatinine increased (TEAE), n patients: 2
  Constipation (TEAE), n patients: 2
  Cough (TEAE), n patients: 0
  Decreased appetite (TEAE), n patients: 3
  Dehydration (TEAE), n patients: 1
  Diarrhoea (TEAE), n patients: 4
  Dry mouth (TEAE), n patients: 0
  Dysgeusia (TEAE), n patients: 1
  Dyspnea (TEAE), n patients: 0
  Edema (TEAE), n patients: 0
  Fatigue (TEAE), n patients: 4
  Hyperglycaemia (TEAE), n patients: 1
  Lung infection/ pneumonia (TEAE), n patients: 0
  Nausea (TEAE), n patients: 2
  Pyrexia (TEAE), n patients: 0
  Rash (TEAE), n patients: 0
  Stomatitis (TEAE), n patients: 1
  Vomiting (TEAE), n patients: 2
[1]; 240 mg US cohort (n = 9)
  Abdominal pain (TEAE), n patients: 4
  Back pain (TEAE), n patients: 3
  Blood creatinine increased (TEAE), n patients: 2
  Constipation (TEAE), n patients: 1
  Cough (TEAE), n patients: 0
  Decreased appetite (TEAE), n patients: 5
  Decreased appetite ≥G3, n patients: 1
  Dehydration (TEAE), n patients: 1
  Diarrhoea (TEAE), n patients: 5
  Dry mouth (TEAE), n patients: 3
  Dysgeusia (TEAE), n patients: 2
  Dyspnea (TEAE), n patients: 3
  Edema (TEAE), n patients: 1
  Fatigue (TEAE), n patients: 5
  Fatigue ≥G3, n patients: 1
  Hyperglycaemia (TEAE), n patients: 2
  Lung infection/ pneumonia (TEAE), n patients: 1
  Nausea (TEAE), n patients: 4
  Pyrexia (TEAE), n patients: 2
  Rash (TEAE), n patients: 0
  Stomatitis (TEAE), n patients: 5
  Stomatitis G3, n patients: 1
  Vomiting (TEAE), n patients: 3
[1]; 240 mg US cohort (n = 9), cell marks ≥G3
  AST increased (TEAE), n patients: 2, ≥G3
[1]; 320 mg US cohort (n = 8)
  AST increased (TEAE), n patients: 0
  Abdominal pain (TEAE), n patients: 0
  Back pain (TEAE), n patients: 0
  Blood creatinine increased (TEAE), n patients: 2
  Constipation (TEAE), n patients: 1
  Cough (TEAE), n patients: 1
  Decreased appetite (TEAE), n patients: 5
  Dehydration (TEAE), n patients: 3
  Dehydration G3, n patients: 1
  Diarrhoea (TEAE), n patients: 4
  Dry mouth (TEAE), n patients: 2
  Dysgeusia (TEAE), n patients: 5
  Dyspnea (TEAE), n patients: 2
  Edema (TEAE), n patients: 1
  Fatigue (TEAE), n patients: 6
  Fatigue G3, n patients: 1
  Hyperglycaemia (TEAE), n patients: 3
  Nausea (TEAE), n patients: 5
  Pyrexia (TEAE), n patients: 2
  Rash (TEAE), n patients: 3
  Stomatitis (TEAE), n patients: 1
  Vomiting (TEAE), n patients: 4
[1]; 320 mg US cohort (n = 8), cell marks G3
  Lung infection/ pneumonia (TEAE), n patients: 1, G3
[1]; 2–28 mg US cohort (n = 10)
  AST increased (TEAE), n patients: 3
  AST increased ≥G3, n patients: 1
  Abdominal pain (TEAE), n patients: 0
  Back pain (TEAE), n patients: 5
  Blood creatinine increased (TEAE), n patients: 0
  Constipation (TEAE), n patients: 3
  Cough (TEAE), n patients: 2
  Decreased appetite (TEAE), n patients: 3
  Dehydration (TEAE), n patients: 0
  Diarrhoea (TEAE), n patients: 5
  Dry mouth (TEAE), n patients: 3
  Dysgeusia (TEAE), n patients: 0
  Dyspnea (TEAE), n patients: 2
  Edema (TEAE), n patients: 2
  Fatigue (TEAE), n patients: 7
  Fatigue ≥G3, n patients: 2
  Hyperglycaemia (TEAE), n patients: 0
  Nausea (TEAE), n patients: 6
  Pyrexia (TEAE), n patients: 1
  Rash (TEAE), n patients: 2
  Stomatitis (TEAE), n patients: 1
  Vomiting (TEAE), n patients: 4
[1]; 2–28 mg US cohort (n = 10), cell marks G3
  Lung infection/ pneumonia (TEAE), n patients: 1, G3
[1]; 48–80 mg US cohort (n = 11)
  AST increased (TEAE), n patients: 1
  Abdominal pain (TEAE), n patients: 1
  Back pain (TEAE), n patients: 1
  Blood creatinine increased (TEAE), n patients: 0
  Constipation (TEAE), n patients: 0
  Cough (TEAE), n patients: 3
  Decreased appetite (TEAE), n patients: 2
  Diarrhoea (TEAE), n patients: 4
  Dry mouth (TEAE), n patients: 3
  Dysgeusia (TEAE), n patients: 2
  Dyspnea (TEAE), n patients: 1
  Edema (TEAE), n patients: 1
  Fatigue (TEAE), n patients: 5
  Fatigue ≥G3, n patients: 1
  Hyperglycaemia (TEAE), n patients: 2
  Lung infection/ pneumonia (TEAE), n patients: 0
  Nausea (TEAE), n patients: 6
  Pyrexia (TEAE), n patients: 2
  Rash (TEAE), n patients: 4
  Rash G3, n patients: 1
  Stomatitis (TEAE), n patients: 3
  Vomiting (TEAE), n patients: 3
[1]; 48–80 mg US cohort (n = 11), cell marks G3
  Dehydration (TEAE), n patients: 1, G3
[1]; US study
  MTD: 240 mg
[1]; US study, 48 mg
  Grade 3 DLT: rash
[1]; US study, 240 mg
  Grade 3 DLT: stomatitis; also recorded: fatigue and dehydration
[1]; US study, of 34 DLT-evaluable patients
  Patients with DLT: 4
[2]; 240-mg dose (MTD)
  median half-life: 12 h
[2]; MTD of 240 mg, Caucasian vs Asian
  Difference in AUC and Cmax between the two populations: no significant differences
[2]; across dose groups
  median time to peak concentration (Tmax): 2 to 4 h
[2]; predose concentrations days 15 and 21 of cycle 1 and day 1 of cycle 2
  Drug accumulation: no remarkable drug accumulation
